From BindingDB's records for patent US20240043403 (Astellas Pharma, 2024)

Molecular target: Diacylglycerol kinase zeta (Homo sapiens, UniProt Q13574)
Assay: Evaluation of DGKdelta Inhibitory Effect
Experimental: To a 384-well plate (Greiner Bio-One Co., Ltd.), 3 μL of a DGK ξ enzyme dissolved in an assay buffer (40 mM Tris-HCl pH 7.5, 10 mM MgCl2, 1 mM dithiothreitol (DTT) and 0.1 mg/mL bovine serum albumin (BSA)) (90 ng/mL) was added, and 3 μL of the test compound diluted with the same assay buffer was added so that an intended final concentration was obtained. The mixture was left standing at room temperature for 15 minutes, 3 μL of a substrate (150 μM 1-oleoyl-2-acetyl-sn-glycerol (Sigma-Aldrich Co. LLC), 480 μM phosphatidylserine (Avanti, Inc.) and 150 μM UltraPure-ATP (attached to ADP-Glo)) was then added, and the mixture was left standing at room temperature for 30 minutes to react. Thereafter, 3 μL of an ADP-Glo Reagent was added, and the mixture was left standing at room temperature for 40 minutes to stop the enzyme reaction. Further, 6 μL of a Kinase-Detection Reagent was added, the mixture was left standing at room temperature for 30 minutes, and the luminescence was then measured using ARVO X3 (PerkinElmer, Inc.). The half maximal inhibitory concentration (IC50) was calculated by Sigmoid-Emax model non-linear regression analysis, where the signal value in solvent treatment was set to 0% inhibition and the signal value without addition of the DGK ξ enzyme was set to 100% inhibition.

Sequence of Diacylglycerol kinase zeta (Q13574 whole entry): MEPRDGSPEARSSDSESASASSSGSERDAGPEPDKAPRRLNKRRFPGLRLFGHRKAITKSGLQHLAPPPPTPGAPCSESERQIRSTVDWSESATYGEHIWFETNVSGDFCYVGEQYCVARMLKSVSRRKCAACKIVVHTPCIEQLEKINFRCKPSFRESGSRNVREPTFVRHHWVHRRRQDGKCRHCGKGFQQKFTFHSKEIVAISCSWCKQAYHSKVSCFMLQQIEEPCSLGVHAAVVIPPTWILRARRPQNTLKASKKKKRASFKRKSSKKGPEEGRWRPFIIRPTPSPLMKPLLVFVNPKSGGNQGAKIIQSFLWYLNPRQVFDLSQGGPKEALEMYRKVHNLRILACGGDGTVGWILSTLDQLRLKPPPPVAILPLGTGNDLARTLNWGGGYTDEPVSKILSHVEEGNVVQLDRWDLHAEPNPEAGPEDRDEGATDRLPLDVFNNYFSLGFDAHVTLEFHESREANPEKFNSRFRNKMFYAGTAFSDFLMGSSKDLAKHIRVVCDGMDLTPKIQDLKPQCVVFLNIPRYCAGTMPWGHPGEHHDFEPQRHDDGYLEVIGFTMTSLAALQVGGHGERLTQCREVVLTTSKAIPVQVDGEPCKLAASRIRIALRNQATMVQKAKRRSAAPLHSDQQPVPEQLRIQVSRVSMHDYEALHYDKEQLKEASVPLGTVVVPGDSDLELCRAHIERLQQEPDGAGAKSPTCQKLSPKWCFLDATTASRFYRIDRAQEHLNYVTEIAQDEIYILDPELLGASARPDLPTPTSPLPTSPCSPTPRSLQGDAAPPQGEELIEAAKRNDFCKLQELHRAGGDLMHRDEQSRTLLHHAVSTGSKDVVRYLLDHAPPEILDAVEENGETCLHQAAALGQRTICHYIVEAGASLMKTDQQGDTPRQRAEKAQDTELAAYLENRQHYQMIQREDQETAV

## NC[C@@H]1CCCN(c2c(NC(=O)c3ccn(CC(F)F)n3)ccc(Oc3ccccc3F)c2C(F)(F)F)C1 [US20240043403, Example 1]
  IC50: 16 nM
